In PubChem BioAssay (NCI):
Where “and” joins values, the source holds several entries; their conditions need not be identical. Identical values can stand only once.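 Cultured in 96-well plates, cells were exposed to test compound for 48 hours across five concentrations. GI50 is the concentration that inhibits growth by half. The concentration for full growth arrest is given as TGI.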

Tests used:
Assay in all cases: DTP human tumour cell line panel, 48 h
RPMI-8226 leukemia = system: RPMI-8226 leukemia
CCRF-CEM leukemia = system: CCRF-CEM leukemia
HL-60(TB) leukemia = system: HL-60(TB) leukemia
NCI-H460 lung = system: NCI-H460 lung
MALME-3M melanoma = system: MALME-3M melanoma
BT-549 breast = system: BT-549 breast
ACHN renal = system: ACHN renal
HS 578T breast = system: HS 578T breast

Compound	GI50 (RPMI-8226 leukemia)	TGI (RPMI-8226 leukemia)	GI50 (CCRF-CEM leukemia)	TGI (CCRF-CEM leukemia)	GI50 (HL-60(TB) leukemia)	TGI (HL-60(TB) leukemia) [µM]	GI50 (NCI-H460 lung)	TGI (NCI-H460 lung)	GI50 (MALME-3M melanoma)	TGI (MALME-3M melanoma)	GI50 (BT-549 breast)	TGI (BT-549 breast)	GI50 (ACHN renal)	TGI (ACHN renal)	GI50 (HS 578T breast)	TGI (HS 578T breast)
CCN1CCN(C(=O)[C@]23CCC(C)(C)C[C@@H]2C2=CC[C@@H]4[C@@]5(C)C/C(=C/c6ccncc6)C(=O)C(C)(C)[C@@H]5CC[C@@]4(C)[C@]2(C)CC3)CC1	1.25 µM	4.64 µM	1.7 µM	5.32 µM	1.04 µM	4.4	1.28 µM	2.7 µM	1.65 µM	3.14 µM	1.53 µM	3.04 µM	1.6 µM	2.95 µM	1.58 µM	4.16 µM
COC(=O)c1ccc(NC(=O)Oc2ccc(N(CCCl)CCCl)cc2)cc1	6.5 µM	> 100 µM	0.782 µM	> 100 µM	0.867 µM	11.6	0.386 µM	14.9 µM	18.4 µM	71.1 µM	10.2 µM	> 100 µM	1.4 µM	16.4 µM	18.8 µM	97.9 µM
c1cc2c(cn1)Nc1ccncc1S2	36.3 µM	> 100 µM	37.3 µM	> 100 µM	20.5 µM	68.5	27.8 µM	> 100 µM	> 100 µM	> 100 µM	59.5 µM	> 100 µM	26.8 µM	> 100 µM	29.6 µM	> 100 µM
CCOC(=O)c1cnc2c(C)cccc2c1Nc1ccc(C(C)=O)cc1	30.9 µM	> 100 µM	> 100 µM	> 100 µM	> 100 µM	> 100	59.3 µM	> 100 µM	28.7 µM	> 100 µM	16.1 µM	59.3 µM	33.5 µM	> 100 µM	15.4 µM	58.4 µM
COc1ccc(/C=C/C(=O)c2sc(-n3nc(-c4ccccc4)cc3-c3ccccc3)nc2C)cc1	–	> 100 µM	> 100 µM	> 100 µM	–	–	> 100 µM	> 100 µM	> 100 µM	> 100 µM	–	–	> 100 µM	> 100 µM	–	–
COc1ccc(N=N/C(C(=O)C(F)(F)F)=C(\O)c2ccc(Cl)cc2)cc1	5.96 µM	47.3 µM	4.61 µM	> 100 µM	7.11 µM	39.4	3.77 µM	27.7 µM	16.1 µM	85.6 µM	7.04 µM	47.2 µM	6.53 µM	> 100 µM	11.2 µM	76.2 µM
NC(=S)c1c(N)n(C2OC(CO)C(O)C2O)c2ncnc(N)c12 (centres undefined)	0.511 µM	3.05 µM	0.241 µM	0.773 µM	0.135 µM	0.407	0.2 µM	–	0.426 µM	2.23 µM	0.17 µM	0.475 µM	0.268 µM	> 100 µM	0.223 µM	0.648 µM
C=CC(=O)N1CC2(CC(n3nc(-c4ccc5c(cnn5C)c4)c(-c4c(Cl)c(C)cc5[nH]ncc45)c3C)C2)C1	2.13 µM	6.72 µM	2.67 µM	14.8 µM	2.58 µM	9.27	3.12 µM	10.3 µM	2.44 µM	5.09 µM	2.57 µM	7.9 µM	2.01 µM	4.81 µM	5.56 µM	62.9 µM
CCN(CC)Cc1cc2[nH]c3c4ccc(Cl)cc4ncc3c2cc1OC	1.26 µM and 1.87 µM	5.09 µM and 4.56 µM	2.52 µM and 1.8 µM	> 19.7 µM and 4.57 µM	5.13 µM and 2.24 µM	–	1.99 µM and 2.19 µM	4.55 µM and 5.11 µM	1.72 µM and 1.99 µM	3.33 µM and 3.75 µM	13.7 µM and 16 µM	27.2 µM and 29.6 µM	5.68 µM and 1.98 µM	16.3 µM and 4.98 µM	2.29 µM and 2.54 µM	7.09 µM and 8.34 µM
CC1=C(Nc2ccc(N3CCN(C)CC3)cc2)C(=O)c2cncnc2C1=O	3.26 µM	11.7 µM	2.6 µM	> 100 µM	2.5 µM	6.11	3.31 µM	11.4 µM	8.96 µM	21.7 µM	17.1 µM	32.5 µM	2.31 µM	5.88 µM	19.5 µM	55.1 µM
COc1cc2c3c(n(C)c(=O)c2cc1OC)-c1ccc(C#N)cc1C3=O	> 100 µM	> 100 µM	> 100 µM	> 100 µM	–	–	> 100 µM	> 100 µM	> 100 µM	> 100 µM	> 100 µM	> 100 µM	> 100 µM	> 100 µM	> 100 µM	> 100 µM
O=C(CN1C(=O)S/C(=C\C(Cl)=C\c2ccccc2)C1=O)NC1C=CS(=O)(=O)C1 (centres undefined)	0.477 µM	4.33 µM	0.327 µM	> 100 µM	–	–	1.86 µM	6.36 µM	1.27 µM	3.93 µM	1.75 µM	4.78 µM	0.931 µM	8.65 µM	2.33 µM	8.33 µM
COc1cccc(/C=C2\COc3ccc(-c4ccccc4)cc3C2=O)c1	–	–	2.42 µM	28.1 µM	2.52 µM	> 100	1.74 µM	3.78 µM	2.53 µM	12.6 µM	2.09 µM	4.94 µM	2.13 µM	5.59 µM	2.76 µM	6.61 µM
N=c1c2c(=N)n3c(nc2nc2n1-c1ccccc1Sc1ccccc1-2)sc1cc(Cl)ccc13	0.988 µM	> 100 µM	2.59 µM	> 100 µM	–	–	1.77 µM	10.3 µM	–	–	3.97 µM	> 100 µM	2.18 µM	> 100 µM	1.78 µM	7.01 µM
Cn1c(-c2c(N)n(CCCN3CCOCC3)c3nc(C#N)c(C#N)nc23)nc2ccccc21	0.909 µM	> 52.7 µM	2.69 µM	> 28.9 µM	0.704 µM	2.08	> 42.5 µM	> 64.3 µM	31.9 µM	> 83.7 µM	16.1 µM	> 64.5 µM	41.7 µM	> 100 µM	–	–
